Results published in publication PMC7044277 (Nature Communications, 2020).
Values joined by “and” are separate entries in the source; they are usually repeats but may differ in a detail not shown here. Equal values may be shown once. Values belong to the compound of their own block, whether it stands above or below them.

Columns and labels:
Type in all cases: cell-based
[1] = target: T1, 320 non-olfactory GPCRs (Homo sapiens, UniProt P29371); design: GPCRome screening signal at PTGIR / GPCRome screening signal at PTH1R / GPCRome screening signal at PTH2R / GPCRome screening signal at QRFP / GPCRome screening signal at RXFP2 / GPCRome screening signal at RXFP3 / GPCRome screening signal at RXFP4 / GPCRome screening signal at S1PR2 / GPCRome screening signal at S1PR3 / GPCRome screening signal at S1PR4 / GPCRome screening signal at S1PR5 / GPCRome screening signal at SCTR / GPCRome screening signal at SSTR2 / GPCRome screening signal at SSSTR / GPCRome screening signal at SSTR4 / GPCRome screening signal at SSTR5 / GPCRome screening signal at SUCNR1 / GPCRome screening signal at TA1 / GPCRome screening signal at TAAR2 / GPCRome screening signal at TAAR5 / GPCRome screening signal at TAAR6 / GPCRome screening signal at TAAR8 / GPCRome screening signal at TACR1 / GPCRome screening signal at TACR2 / GPCRome screening signal at TACR3 / GPCRome screening signal at TBXA2R / GPCRome screening signal at TSHR / GPCRome screening signal at UTS2R / GPCRome screening signal at VIPR2 / GPCRome screening signal at GPR68 no V2 Tail / GPCRome screening signal at GRM2 / GPCRome screening signal at GRM3: reference not given here; conditions: receptor TACR3
T1 construct: expressed in transfected cells; host or cells: HTLA cells

[2] = target: 320 non-olfactory GPCRs (Homo sapiens, UniProt Q03431); design: GPCRome screening signal at PTGIR / GPCRome screening signal at PTH1R / GPCRome screening signal at PTH2R / GPCRome screening signal at QRFP / GPCRome screening signal at RXFP2 / GPCRome screening signal at RXFP3 / GPCRome screening signal at RXFP4 / GPCRome screening signal at S1PR2 / GPCRome screening signal at S1PR3 / GPCRome screening signal at S1PR4 / GPCRome screening signal at S1PR5 / GPCRome screening signal at SCTR / GPCRome screening signal at SSTR2 / GPCRome screening signal at SSSTR / GPCRome screening signal at SSTR4 / GPCRome screening signal at SSTR5 / GPCRome screening signal at SUCNR1 / GPCRome screening signal at TA1 / GPCRome screening signal at TAAR2 / GPCRome screening signal at TAAR5 / GPCRome screening signal at TAAR6 / GPCRome screening signal at TAAR8 / GPCRome screening signal at TACR1 / GPCRome screening signal at TACR2 / GPCRome screening signal at TACR3 / GPCRome screening signal at TBXA2R / GPCRome screening signal at TSHR / GPCRome screening signal at UTS2R / GPCRome screening signal at VIPR2 / GPCRome screening signal at GPR68 no V2 Tail / GPCRome screening signal at GRM2 / GPCRome screening signal at GRM3: reference not given here; conditions: receptor PTH1R
[3] = target: T2, 320 non-olfactory GPCRs (Homo sapiens, UniProt Q96RI8); design: GPCRome screening signal at PTGIR / GPCRome screening signal at PTH1R / GPCRome screening signal at PTH2R / GPCRome screening signal at QRFP / GPCRome screening signal at RXFP2 / GPCRome screening signal at RXFP3 / GPCRome screening signal at RXFP4 / GPCRome screening signal at S1PR2 / GPCRome screening signal at S1PR3 / GPCRome screening signal at S1PR4 / GPCRome screening signal at S1PR5 / GPCRome screening signal at SCTR / GPCRome screening signal at SSTR2 / GPCRome screening signal at SSSTR / GPCRome screening signal at SSTR4 / GPCRome screening signal at SSTR5 / GPCRome screening signal at SUCNR1 / GPCRome screening signal at TA1 / GPCRome screening signal at TAAR2 / GPCRome screening signal at TAAR5 / GPCRome screening signal at TAAR6 / GPCRome screening signal at TAAR8 / GPCRome screening signal at TACR1 / GPCRome screening signal at TACR2 / GPCRome screening signal at TACR3 / GPCRome screening signal at TBXA2R / GPCRome screening signal at TSHR / GPCRome screening signal at UTS2R / GPCRome screening signal at VIPR2 / GPCRome screening signal at GPR68 no V2 Tail / GPCRome screening signal at GRM2 / GPCRome screening signal at GRM3: reference not given here; conditions: receptor TAAR6
T2 construct: expressed in transfected cells; host or cells: HTLA cells

[4] = target: T3, DRD2 S1945.43G (Homo sapiens, UniProt P14416, S194G); test: Gαi/o-mediated cAMP inhibition (GloSensor), mutant; conditions: DRD2 Ser5.43Gly; G-protein assay
T3 construct: expressed in transfected cells; host or cells: HEK293T (ATCC CRL-11268)

[5] = target: DRD5 (Homo sapiens, UniProt P21918); test: β-arrestin2 recruitment (Tango); conditions: Fig_S10e, single replicates
[6] = target: T4, 5HT6 (Homo sapiens, UniProt P50406); test: β-arrestin2 recruitment (Tango); conditions: Fig_S10p, agonist mode
T4 construct: expressed in transfected cells; host or cells: HTLA cells expressing TEV-fused β-arrestin2

[7] = target: T5, 5HT7A (Homo sapiens, UniProt P34969); test: β-arrestin2 recruitment (Tango); conditions: for β-arrestin2 recruitment response, replicate points of concentration-response curve: Fig_S10q, agonist mode
T5 construct: expressed in transfected cells; host or cells: HTLA cells expressing TEV-fused β-arrestin2

[8] = Fig_5f, single replicate values
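For GPCRome agonism screen response in this document: fold over basal response of each receptor without drug.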

320 non-olfactory GPCRs (Homo sapiens, UniProt Q03431), sequence (Q03431 27-593): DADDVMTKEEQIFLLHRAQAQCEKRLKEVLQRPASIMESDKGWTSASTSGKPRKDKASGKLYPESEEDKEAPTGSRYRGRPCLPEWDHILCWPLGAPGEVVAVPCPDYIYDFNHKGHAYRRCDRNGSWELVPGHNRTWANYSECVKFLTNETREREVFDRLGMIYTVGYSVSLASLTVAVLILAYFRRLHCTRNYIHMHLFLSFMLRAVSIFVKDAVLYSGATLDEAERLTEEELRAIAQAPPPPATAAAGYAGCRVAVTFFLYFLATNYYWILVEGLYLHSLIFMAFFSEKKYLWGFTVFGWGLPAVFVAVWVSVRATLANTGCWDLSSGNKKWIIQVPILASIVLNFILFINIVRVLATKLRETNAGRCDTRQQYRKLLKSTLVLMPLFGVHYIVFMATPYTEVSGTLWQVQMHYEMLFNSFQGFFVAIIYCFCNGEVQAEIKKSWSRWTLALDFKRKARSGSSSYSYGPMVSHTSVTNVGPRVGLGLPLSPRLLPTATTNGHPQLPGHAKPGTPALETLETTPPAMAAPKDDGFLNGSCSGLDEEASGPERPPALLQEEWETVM
T5 sequence (P34969 1-445 isoform P34969-2): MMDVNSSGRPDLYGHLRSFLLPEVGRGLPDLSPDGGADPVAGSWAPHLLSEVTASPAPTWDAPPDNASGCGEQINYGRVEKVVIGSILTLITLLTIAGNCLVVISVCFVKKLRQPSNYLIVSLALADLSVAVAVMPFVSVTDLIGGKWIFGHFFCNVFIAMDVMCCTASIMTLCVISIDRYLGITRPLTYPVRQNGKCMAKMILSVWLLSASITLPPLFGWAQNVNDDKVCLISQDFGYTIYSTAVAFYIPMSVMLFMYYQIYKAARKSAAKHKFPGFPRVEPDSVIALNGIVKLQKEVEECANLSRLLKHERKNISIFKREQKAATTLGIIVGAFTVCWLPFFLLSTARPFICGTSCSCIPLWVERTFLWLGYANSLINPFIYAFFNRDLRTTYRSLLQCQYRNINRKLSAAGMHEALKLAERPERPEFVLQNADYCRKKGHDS
T4 sequence (P50406 whole entry, the tested form may be a part): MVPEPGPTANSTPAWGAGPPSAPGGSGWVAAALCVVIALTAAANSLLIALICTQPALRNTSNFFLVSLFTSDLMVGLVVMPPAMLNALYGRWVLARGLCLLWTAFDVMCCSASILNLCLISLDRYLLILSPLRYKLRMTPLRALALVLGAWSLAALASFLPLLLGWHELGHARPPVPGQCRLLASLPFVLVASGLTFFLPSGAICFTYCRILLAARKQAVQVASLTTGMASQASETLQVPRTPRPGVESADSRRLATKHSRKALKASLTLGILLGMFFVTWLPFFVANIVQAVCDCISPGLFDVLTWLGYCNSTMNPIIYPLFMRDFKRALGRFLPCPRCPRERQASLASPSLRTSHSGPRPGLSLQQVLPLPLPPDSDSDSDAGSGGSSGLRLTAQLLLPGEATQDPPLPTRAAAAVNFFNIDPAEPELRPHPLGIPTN
T2 sequence (Q96RI8 whole entry): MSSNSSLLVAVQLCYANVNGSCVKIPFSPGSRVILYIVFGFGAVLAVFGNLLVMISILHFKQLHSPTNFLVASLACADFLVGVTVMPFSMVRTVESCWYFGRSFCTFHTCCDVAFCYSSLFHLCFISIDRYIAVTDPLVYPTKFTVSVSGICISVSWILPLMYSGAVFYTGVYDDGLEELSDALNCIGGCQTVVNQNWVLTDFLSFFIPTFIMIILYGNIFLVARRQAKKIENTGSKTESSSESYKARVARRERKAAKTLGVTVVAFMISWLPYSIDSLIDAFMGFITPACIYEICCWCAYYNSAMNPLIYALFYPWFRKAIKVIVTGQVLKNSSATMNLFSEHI
DRD5, sequence (P21918 whole entry): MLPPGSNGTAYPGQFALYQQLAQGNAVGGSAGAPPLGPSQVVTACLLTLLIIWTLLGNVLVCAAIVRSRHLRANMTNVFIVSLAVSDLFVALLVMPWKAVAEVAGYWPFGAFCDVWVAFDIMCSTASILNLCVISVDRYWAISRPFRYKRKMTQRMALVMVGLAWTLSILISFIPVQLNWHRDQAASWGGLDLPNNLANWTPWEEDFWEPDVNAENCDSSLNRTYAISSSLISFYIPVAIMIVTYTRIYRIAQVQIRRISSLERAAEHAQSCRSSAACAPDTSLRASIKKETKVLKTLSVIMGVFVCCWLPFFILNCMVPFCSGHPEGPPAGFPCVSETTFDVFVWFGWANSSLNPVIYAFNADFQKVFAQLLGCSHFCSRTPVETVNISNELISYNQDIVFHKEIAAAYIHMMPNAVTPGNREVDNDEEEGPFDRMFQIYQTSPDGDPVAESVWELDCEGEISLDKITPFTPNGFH
T1 sequence (P29371 whole entry): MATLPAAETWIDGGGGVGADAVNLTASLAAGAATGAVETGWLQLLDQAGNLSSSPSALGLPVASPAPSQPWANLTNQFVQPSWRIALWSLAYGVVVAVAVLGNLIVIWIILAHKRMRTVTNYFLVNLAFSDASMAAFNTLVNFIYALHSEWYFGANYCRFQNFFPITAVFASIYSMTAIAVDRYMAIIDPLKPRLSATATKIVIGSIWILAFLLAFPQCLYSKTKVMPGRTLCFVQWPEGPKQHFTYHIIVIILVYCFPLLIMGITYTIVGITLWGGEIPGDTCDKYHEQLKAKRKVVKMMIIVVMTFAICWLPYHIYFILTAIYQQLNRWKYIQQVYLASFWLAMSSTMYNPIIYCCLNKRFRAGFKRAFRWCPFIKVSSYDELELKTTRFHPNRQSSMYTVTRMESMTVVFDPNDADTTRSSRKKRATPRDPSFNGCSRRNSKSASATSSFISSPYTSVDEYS
T3 sequence (P14416 whole entry S194G): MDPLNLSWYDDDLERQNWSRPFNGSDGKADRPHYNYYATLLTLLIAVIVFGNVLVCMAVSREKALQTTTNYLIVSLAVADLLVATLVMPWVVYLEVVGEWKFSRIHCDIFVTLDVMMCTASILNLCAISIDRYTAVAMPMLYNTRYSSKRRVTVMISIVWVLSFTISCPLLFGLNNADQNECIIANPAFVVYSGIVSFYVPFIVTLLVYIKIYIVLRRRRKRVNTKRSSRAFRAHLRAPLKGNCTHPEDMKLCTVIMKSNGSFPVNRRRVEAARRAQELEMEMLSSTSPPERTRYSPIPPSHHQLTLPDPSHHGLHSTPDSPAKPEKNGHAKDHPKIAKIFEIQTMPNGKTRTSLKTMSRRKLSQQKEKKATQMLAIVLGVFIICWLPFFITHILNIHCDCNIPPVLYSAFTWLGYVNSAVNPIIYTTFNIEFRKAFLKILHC

Structure (SMILES): CCOc1cccc2cc(C(C)NCC3(O)CCCCC3)oc12 (stereo not shown) [O4LE6]
GPCRome agonism screen response ([1]; replicate values, Fig_4g): 1.119 and 1.001 and 1.104 and 0.992
GPCRome agonism screen response ([2]; replicate values, Fig_4g): 0.6677 and 0.9983 and 1.484 and 1.06
GPCRome agonism screen response ([3]; replicate values, Fig_4g): 1.686 and 0.9412 and 0.4865 and 0.01025

GPCRome screening signal at TACR3 [1, 8]: 1.15 and 1.023 and 1.051 and 0.8328
GPCRome screening signal at PTH1R [2, 8]: 2.489 and 1.041 and 1.352 and 1.077
GPCRome screening signal at TAAR6 [3, 8]: 0.9086 and 0.7284 and 0.9687 and 0.7288
Structure (SMILES): CCOc1ccccc1CCC(C)NCC1(O)CCCCC1.Cl (racemic) [Fig_5f]

Structure (SMILES): CCOc1cccc2cc([C@@H](C)NCC3(O)CCCCC3)oc12 [O4RE6]
agonism after serine to glycine substitution [4]: impaired
β-arrestin2 recruitment response, agonist mode (normalized) ([5]; Log[Drug] -6.52): 3.307
β-arrestin2 recruitment response, agonist mode (normalized) ([5]; Log[Drug] -7): 3.556 and 3.7037 and 0.3329 and 4.539 and 1.619 and 0.7476 and 0.7305 and 1.517 and 0.06412
β-arrestin2 recruitment response, agonist mode (normalized) ([5]; Log[Drug] -7.52): 3.831 and -0.7608 and 1.183 and 2.699 and 1.3394 and 0.2373 and -0.5855 and 0.1756 and 0.6817
β-arrestin2 recruitment response, agonist mode (normalized) ([5]; Log[Drug] -8): -0.354 and 4.126 and 1.796 and 1.252 and 1.785 and 1.286 and -0.552 and 0.7932 and 1.175
β-arrestin2 recruitment response, agonist mode (normalized) ([5]; Log[Drug] -8.52): 4.945 and 4.734 and 2.002 and 0.8283 and 1.858 and 0.3616 and -0.1241 and 0.7932 and 0.1701
β-arrestin2 recruitment response, agonist mode (normalized) ([5]; Log[Drug] -9): -0.5336 and 1.162 and 2.8425 and 2.532 and 0.2334 and 1.094 and -1.004 and 0.5702 and 1.069
β-arrestin2 recruitment response, agonist mode (normalized) ([5]; Log[Drug] -9.52): 1.189 and -0.1004 and 3.714 and 0.519 and 0.6511 and 2.841 and 3.8684 and 0.6677 and 1.209
β-arrestin2 recruitment response, agonist mode (normalized) ([5]; Log[Drug] -10): 1.189 and -0.7027 and -2.2032 and 1.378 and 0.875 and 0.4502 and -0.1213 and -0.3875 and 2.24
β-arrestin2 recruitment response, agonist mode (normalized) ([5]; Log[Drug] -10.52): 0.7608 and -0.5125 and 1.416 and 1.597 and 1.308 and 1.974 and 3.531 and 1.161 and 0.5451
β-arrestin2 recruitment response, agonist mode (normalized) ([5]; Log[Drug] -11): -0.3117 and 1.606 and -1.358 and 0.3916 and 1.977 and 2.8 and -0.009758 and 3.703 and 3.711
β-arrestin2 recruitment response, agonist mode (normalized) ([5]; Log[Drug] -11.52): -1.77 and 3.926 and 0.7503 and 1.5356 and 0.746 and 0.6788 and -0.4001 and 8.516 and 5.095
β-arrestin2 recruitment response, agonist mode (normalized) ([5]; Log[Drug] -12): -0.9088 and 2.256 and -1.342 and 2.237 and 0.341 and 1.2057 and -1.023 and 0.1729 and 0.8517
β-arrestin2 recruitment response, replicate points of concentration-response curve ([6]; Log[Drug] -6): 0.6179
β-arrestin2 recruitment response, replicate points of concentration-response curve ([6]; Log[Drug] -6.52): 2.255 and 6.005 and -0.9593 and 0.5245 and -8.852 and -1.095 and 3.803 and 14.7296 and 1.5314
β-arrestin2 recruitment response, replicate points of concentration-response curve ([6]; Log[Drug] -7): 2.737 and -0.8021 and 0.3035 and -9.828 and -11.4107 and -3.313 and -1.206 and -3.514 and 45.5574
β-arrestin2 recruitment response, replicate points of concentration-response curve ([6]; Log[Drug] -7.52): 9.506 and 14.1402 and 17.6522 and -10.6377 and -5.208 and -2.549 and -1.295 and 2.071 and -1.605
β-arrestin2 recruitment response, replicate points of concentration-response curve ([6]; Log[Drug] -8): -0.645 and 1.165 and 0.2927 and -3.147 and 13.2695 and -12.1837 and -4.853 and 0.614 and -2.656
β-arrestin2 recruitment response, replicate points of concentration-response curve ([6]; Log[Drug] -8.52): -0.1626 and 4.9103 and -0.3035 and -9.285 and -10.3985 and -13.5456 and -5.689 and -5.904 and -4.713
β-arrestin2 recruitment response, replicate points of concentration-response curve ([6]; Log[Drug] -9): 5.962 and 3.36 and 0.775 and -2.264 and 6.672 and -11.4475 and -4.468 and 0.05179 and -2.649
β-arrestin2 recruitment response, replicate points of concentration-response curve ([6]; Log[Drug] -9.52): 0.7804 and -0.09756 and 1.653 and -9.57 and -13.2511 and -10.2512 and -0.9174 and -5.319 and -2.049
β-arrestin2 recruitment response, replicate points of concentration-response curve ([6]; Log[Drug] -10): -1.848 and 4.038 and 4.894 and -4.813 and -13.9689 and -2.9539 and 13.3388 and -5.371 and 2.353
β-arrestin2 recruitment response, replicate points of concentration-response curve ([6]; Log[Drug] -10.52): 1.577 and 1.859 and -0.3143 and -10.7113 and -10.242 and -8.8801 and -0.04439 and -4.439 and 2.981
β-arrestin2 recruitment response, replicate points of concentration-response curve ([6]; Log[Drug] -11): -1.149 and 2.054 and 0.1355 and -7.003 and -10.3432 and 9.598 and -3.27 and -3.4993 and -5.608
β-arrestin2 recruitment response, replicate points of concentration-response curve ([6]; Log[Drug] -11.52): -1.182 and 12.7148 and 3.068 and 1.2699 and -8.8985 and -8.135 and 6.251 and -5.941 and -5.608
concentration at which the receptor is activated ([7]; 5HT7A, agonist activity only at high concentrations): over 1 μM
β-arrestin2 recruitment response, replicate points of concentration-response curve ([7]; Log[Drug] -8.52): -12.5786 and -8.044 and 1.071 and -9.7421 and 32.4405 and 49.1467 and -14.2149 and 16.5223 and -11.2331 and 4.354 and 35.2448 and 10.2419
β-arrestin2 recruitment response, replicate points of concentration-response curve ([7]; Log[Drug] -9): 10.8788 and 4.459 and -14.1005 and -17.9842 and -16.1246 and -21.1449 and -7.127 and 62.1289 and 35.3983 and -32.9912 and 26.9263 and -33.8761
β-arrestin2 recruitment response, replicate points of concentration-response curve ([7]; Log[Drug] -9.52): -17.7926 and -13.0806 and -8.59 and 76.7429 and -5.732 and -9.941 and -9.587 and 8.198 and -49.3687 and 45.8761
β-arrestin2 recruitment response, replicate points of concentration-response curve ([7]; Log[Drug] -10): 8.776 and -5.649 and -4.779 and -6.75 and 22.3693 and -13.4231 and 66.8562 and 10.9818 and 67.3785 and -0.5782 and 14.0649 and -7.044
β-arrestin2 recruitment response, replicate points of concentration-response curve ([7]; Log[Drug] -10.52): 3.024 and -18.69 and -0.8855 and -5.258 and -47.1876 and -14.9154 and -10.2215 and 7.524 and 59.795 and 14.1475 and 8.932 and -11.705
β-arrestin2 recruitment response, replicate points of concentration-response curve ([7]; Log[Drug] -11): 2.617 and -4.127 and -1.973 and 44.555 and 24.1984 and -23.678 and 55.762 and 41.0711 and -15.762 and -13.3333 and -38.2183 and -14.0059
β-arrestin2 recruitment response, replicate points of concentration-response curve ([7]; Log[Drug] -11.52): 10.0328 and 5.163 and -15.1797 and -41.8076 and 36.1292 and 53.417 and 13.0909 and -3.233 and 13.8777 and 47.469 and -14.7611 and -41.4631
β-arrestin2 recruitment response, replicate points of concentration-response curve ([7]; Log[Drug] -12): -10.6692 and 6.787 and -7.578 and 7.025 and -23.6244 and 50.44 and -4.476 and 12.3769 and -7.901 and 14.5015 and 35.0914 and -7.516
